Test results taken from paper PMC5943252, “Contrasting roles for actin in the cellular uptake of cell penetrating peptide conjugates” (Scientific Reports, 2018).
Entries after “also recorded” stand apart in the source; their conditions may differ.

Columns and labels:
macrophages = settings: cited from earlier work
Description: Through interaction with the Rho GTPase, ROCKs play a central role in actin network assembly and membrane association. In A431 cells the effects of Y27632 on the actin cytoskeleton was more subtle than that observed with the agents that directly targeted actin. […] In contrast to results o ...

A431 cells [1] = assay: Flow cytometry of cellular uptake of EGFP-R8 in the presence of actin inhibitors; format: cell-based; settings: for Normalised Fluoresence Intensity (EGFP-R8): three independent experiments
Protocol: (§1) A431 cells were seeded onto 12-well plates and cultured for 24 hr to be ~80% confluent on the day of experiment. Cells were washed twice with PBS and then incubated with diluent control (DMSO/dH2O) or actin inhibitors as previously described. They were then loaded with serum-free DMEM containing either 2 µM EGFP-R8, 5 µg/ml TF-647 or 0.1 mg/ml Dex-647 in the presence or absence of actin inhibitors for times stipulated in the figure legends. The plates were then placed on ice to prevent further uptake and washed 3x with either ice-cold PBS or 0.5 mg/ml heparin in PBS. To remove the plasma membrane bound TF, cells were washed 3x with ice-cold PBS followed by an incubation for 1 min in ice-cold acid wash (0.2 M acetic acid, 0.2 M NaCl, pH 2.0)[33]. All cells were then washed twice with PBS at room temperature before trypsinisation at 37 °C for 5 min before placing the detached cells in centrifuge tubes and centrifuging at 4 °C for 3 min at 800 × g. The obtained cell suspension was washed 3x with ice-cold PBS and finally resuspended in 300 µl ice-cold PBS for measurement of cell-associated fluorescence (cell gate 50,000 cells) by flow cytometry on a BD FACSVerse utilising a 488 laser and 527/32 filter for EGFP analysis and a 633 nm laser and 660/10 filter for Alexa 647. Cells were gated using FSC-A/SSC-A to isolate single cell populations and analysed using FlowJo.
Flow cytometry measurements represent the mean fluorescence from three independent experiments performed in duplicate, where each individual data point was the geometric mean. A two-tailed unpaired Students t-test was used to test for differences within experiments. Significant differences were classed as having a P value of < 0.05.

[2] = test system: actin architecture in A431 cells; assay: Actin cytoskeleton visualisation (Rh-P staining, confocal microscopy); format: cell-based; settings: for effect on organisation of the actin cytoskeleton: A431 cells, 4 hr, Rh-P staining
Protocol: Analysis was performed on a Leica SP5 confocal laser scanning microscope, equipped with laser lines: 405 Blue Diode (Excitation wavelength 405 nm for Hoechst 33342) Argon (Excitation wavelength 488 nm for Alexa 488 or EGFP), Helium Neon Laser 1 (Excitation wavelength 543 nm for Tetramethyl-Rhodamine Phalloidin (Rh-P)) and Laser 2 (Excitation wavelength 633 nm for Alexa 647 conjugates). All images presented in this study were obtained using a HCX PL APO 63x 1.4 NA oil immersion objective with Leica Type F immersion oil. Parameters “Gain” and “Off-set” of the individual photomultiplier tubes were adjusted between experiments in order to obtain optimal image acquisition avoiding saturation. For multi-channel image acquisition, the channels were scanned in a sequential recording mode to avoid spectral cross-talk caused by overlapping excitation and/or emission spectra of fluorophores. Acquisition mode “XYZ” and image resolutions (pixels/image) of 512 × 512 or 1024 × 1024 were selected and pinhole size was set to 1 Airy Unit. Depending on acquisition requirements the scan speed was set as either 400 or 700 Hz and for single section images, the same optical section was scanned 3x to generate a line average image. Captured images were then analysed using ImageJ. In some cases (live cell imaging) the same cells were also imaged using […] microscopy (DIC).
A recently described method was utilised giving information on actin architecture at different regions of the cells termed basal and cell body and apex (CBA). For actin staining, HeLa (0.5 × 10^6 cells/well) or A431 (1.0 × 10^6 cells/well) cells in 2.5 mL D-MEM containing 10% FBS were seeded on round borosilicate No.1.5 cover slips in 6 –well plates and allowed to adhere for 24 hr at 37 °C/5% CO2, to reach a confluence of ~80%. The cells were then treated with actin disrupters as described above, washed 3x with PBS and fixed for 15 min at room temperature with 3% PFA in PBS. Cells were then washed 3x with PBS and permeabilised with 0.2% Triton X-100 in PBS at room temperature for 5 min, washed 3x with PBS and stained for cell nuclei with 1.0 µg/ml Hoechst 33342 in PBS and for polymerised actin with 1.0 µg/ml Rh-P in PBS for 15 min at room temperature. The cells were finally washed 3x with PBS and once with distilled water, coverslips were mounted in DAKO mounting medium on glass microscope slides and imaged by confocal microscopy.

A431 cells [3] = assay: Flow cytometry of transferrin-Alexa647 uptake with acid wash; format: cell-based; settings: 10 µM Cyt D, 15 min preincubation, then 5 µg/ml TF-647 for 30 min with Cyt D, acid washing of surface label, three separate experiments
Protocol: as §1, with “All cells were then washed twice with PBS at room temperature before trypsinisation at 37 °C for 5 min before placing the detached cells in centrifuge tubes and centrifuging at 4 °C for 3 min at 800 × g.” left out
Flow cytometry measurements represent the mean fluorescence from three independent experiments performed in duplicate, where each individual data point was the geometric mean. […]

HeLa cells = assay: Live cell confocal microscopy of uptake of endocytic probes and R8 conjugates, with or without Cyt D; format: cell-based; settings: 10 µM Cyt D, 15 min preincubation
Protocol: HeLa or A431 cells were seeded on 35 mm MatTek dishes (Ashland, US) at respective densities of 5 × 10^5 cells/dish and 1.0 × 10^6 cells/dish and maintained in 2.5 mL D-MEM containing 10%, 100 IU/mL penicillin and 100 µg/mL streptomycin. Cells were then allowed to adhere for 24 hr at 37 °C/5% CO2 to reach a confluence of ~80%. On the day of experimentation, they were washed with PBS and then incubated with 100 µl serum-free D-MEM (thus reducing well described serum binding effects[32]) containing either 2 µM CPP conjugate (R8-Alexa488 or EGFP-R8), 5 µg/ml transferrin-Alexa 647 (TF-647) or 0.1 mg/ml dextran (10 kDa)-Alexa 647 (Dex-647). The cells were then incubated for 1 hr (or 30 min for TF-647) at 37 °C/5% CO2 before washing 3x with PBS (TF-647 or Dex-647) or PBS 0.5 mg/mL heparin (R8-conjugates). […]
Cells were seeded on MatTek dishes as previously described and were washed with PBS before preincubation at 37 °C with diluent control (DMSO) or actin inhibitors: 10 µM Cyt D for 15 min; 0.1–1 µM Lat B for 30 min; 0.2–4 µM JAS for 45 min; 50–100 µM Y27632 for 4 hr in serum-free D-MEM at 37 °C/5% CO2. […] EGFP-R8 (2 µM) was then added for 1 hr in the absence or presence of 10 µM Cyt D. EGFP-R8 and Dex-647 subcellular distribution was then analysed in live cells using confocal microscopy. […]

A431 cells [4] = assay: Live cell confocal microscopy of uptake of endocytic probes and R8 conjugates, with or without actin inhibitors; format: cell-based; settings: 10 µM Cyt D, 15 min preincubation
Protocol: HeLa or A431 cells were seeded on 35 mm MatTek dishes (Ashland, US) at respective densities of 5 × 10^5 cells/dish and 1.0 × 10^6 cells/dish and maintained in 2.5 mL D-MEM containing 10%, 100 IU/mL penicillin and 100 µg/mL streptomycin. Cells were then allowed to adhere for 24 hr at 37 °C/5% CO2 to reach a confluence of ~80%. On the day of experimentation, they were washed with PBS and then incubated with 100 µl serum-free D-MEM (thus reducing well described serum binding effects[32]) containing either 2 µM CPP conjugate (R8-Alexa488 or EGFP-R8), 5 µg/ml transferrin-Alexa 647 (TF-647) or 0.1 mg/ml dextran (10 kDa)-Alexa 647 (Dex-647). The cells were then incubated for 1 hr (or 30 min for TF-647) at 37 °C/5% CO2 before washing 3x with PBS (TF-647 or Dex-647) or PBS 0.5 mg/mL heparin (R8-conjugates). They were then washed once with PBS, prior to the addition of 2 mL of imaging medium (phenol red free RPMI, 20 mM HEPES pH 7.4) and analysis by live cell confocal microscopy.
Cells were seeded on MatTek dishes as previously described and were washed with PBS before preincubation at 37 °C with diluent control (DMSO) or actin inhibitors: 10 µM Cyt D for 15 min; 0.1–1 µM Lat B for 30 min; 0.2–4 µM JAS for 45 min; 50–100 µM Y27632 for 4 hr in serum-free D-MEM at 37 °C/5% CO2. Endocytic probes (TF-647, Dex-647) or R8-conjugates were then incubated with the cells in the absence (control) or presence of the inhibitors and further incubated at 37 °C/5% CO2 for times specified in figure legends prior to analysis by confocal microscopy. For pulse chase experiments, A431 cells were incubated with 0.1 mg/ml Dex-647 for 2 hr (pulse) followed by washing and a further 4 hr (chase) in fresh complete growth medium. EGFP-R8 (2 µM) was then added for 1 hr in the absence or presence of 10 µM Cyt D. EGFP-R8 and Dex-647 subcellular distribution was then analysed in live cells using confocal microscopy. For low temperature experiments, cells were preincubated with Cyt D as above and then placed on ice for 2 min prior to addition of ice cold EGFP-R8. The cells were then maintained under these conditions for 1 hr prior to analysis by confocal microscopy.
Analysis was performed on a Leica SP5 confocal laser scanning microscope, equipped with laser lines: 405 Blue Diode (Excitation wavelength 405 nm for Hoechst 33342) Argon (Excitation wavelength 488 nm for Alexa 488 or EGFP), Helium Neon Laser 1 (Excitation wavelength 543 nm for Tetramethyl-Rhodamine Phalloidin (Rh-P)) and Laser 2 (Excitation wavelength 633 nm for Alexa 647 conjugates). All images presented in this study were obtained using a HCX PL APO 63x 1.4 NA oil immersion objective with Leica Type F immersion oil. Parameters “Gain” and “Off-set” of the individual photomultiplier tubes were adjusted between experiments in order to obtain optimal image acquisition avoiding saturation. For multi-channel image acquisition, the channels were scanned in a sequential recording mode to avoid spectral cross-talk caused by overlapping excitation and/or emission spectra of fluorophores. Acquisition mode “XYZ” and image resolutions (pixels/image) of 512 × 512 or 1024 × 1024 were selected and pinhole size was set to 1 Airy Unit. Depending on acquisition requirements the scan speed was set as either 400 or 700 Hz and for single section images, the same optical section was scanned 3x to generate a line average image. Captured images were then analysed using ImageJ. […]

A431 = settings: cited from earlier work
Description: (§2) Cyt D binds to the fast-growing ends of actin nuclei and filaments, preventing addition of monomeric actin to these sites. […] Here we further explored these contradictory effects by also performing uptake studies with recomb ...

HeLa = settings: cited from earlier work
Description: as §2

| SMILES | inhibition of uptake of 70 KDa dextran (macrophages) | inhibition of cell uptake of EGFP-R8 (A431 cells [1]; 100 µM Y27632, 4 hr preincubation, then 2 µM EGFP-R8 for 1 hr with Y27632, P = 0.02) | Normalised Fluoresence Intensity (EGFP-R8) (A431 cells [1]; 100 µM Y27632, 4 hr preincubation, then 2 µM EGFP-R8 for 1 hr with Y27632, mean of geometric means) | effect on organisation of the actin cytoskeleton ([2]; Y27632 1 and 10 μM (up to 10 μM)) | effect on organisation of the actin cytoskeleton ([2]; Y27632 at higher concentrations (50, 100 μM)) | effect on fluorescence uptake of transferrin (A431 cells [3]) | effect on internalisation of R8-Alexa 488 (HeLa cells; then 2 µM R8-Alexa 488 for 1 hr with Cyt D, heparin wash) | effect on cell associated transferrin fluorescence (HeLa cells; then 5 µg/ml TF-647 for 30 min with Cyt D, vs control) | Normalised Fluoresence Intensity (EGFP-R8) (A431 cells [1]; 10 µM Cyt D, 15 min preincubation, then 2 µM EGFP-R8 for 1 hr with Cyt D, geometric means, normalised to diluent control) | fold increase in intracellular fluorescence (EGFP-R8 uptake) (A431 cells [1]; 10 µM Cyt D, 15 min preincubation, then 2 µM EGFP-R8 for 1 hr with Cyt D, serum-free D-MEM, 37 °C, washed, trypsinised, vs diluent control, P = 0.0036, three independent experiments) | effect on internalisation of EGFP-R8 (A431 cells [4]; then 2 µM EGFP-R8 for 1 hr with Cyt D, heparin wash) | effect on uptake of R8-Alexa488 (A431 cells [4]; then 2 µM R8-Alexa488 for 1 hr with Cyt D, heparin wash) | effect on uptake of dextran-Alexa647 (A431 cells [4]; then 0.1 mg/ml 10 kDa Dex-647 for 1 hr with Cyt D) | effect on actin organisation ([2]; Cyt D at concentrations >5 µM) | effect on uptake of Alexa488-CPPs R8 and Tat (A431; A431, flow cytometry) | effect on uptake of dextran (A431; A431 cells) | effect on uptake of dextran (HeLa; HeLa cells) | effect on uptake of Alexa488-CPPs R8 and Tat (HeLa; HeLa, flow cytometry) |
| --- | --- | --- | --- | --- | --- | --- | --- | --- | --- | --- | --- | --- | --- | --- | --- | --- | --- | --- |
| C[C@@H](N)[C@H]1CC[C@H](C(=O)Nc2ccncc2)CC1.Cl.Cl (relative stereo) [Y27632, (+)-(R)-trans-4-(1-aminoethyl)-N-(4-pyridyl) cyclohexanecarboxamide dihydrochloride] | ~ 50% | ~ 20% | 0.77 | no visible changes in the organisation of the actin cytoskeleton | extensive actin deformities |  |  |  |  |  |  |  |  |  |  |  |  |  |
| C=C1[C@@H](C)[C@H]2[C@H](Cc3ccccc3)NC(=O)[C@]23[C@H](OC(C)=O)/C=C/[C@@](C)(O)C(=O)[C@@H](C)C/C=C/[C@H]3[C@@H]1O [Cyt D, cytochalasin D] |  |  |  |  |  | no difference in fluorescence uptake | inhibited; also recorded: reduction in uptake | not markedly different | 4.55 | 4.5 fold | dramatically enhanced | less of a noticeable reduction in uptake; also recorded: inhibition | dramatically increased | completely destroys actin organisation | inhibited | increased uptake | no effect | inhibited |
